Source: patent publication US20260053764A1, “COMPOSITION FOR PREVENTING DETERIORATION IN COGNITIVE FUNCTION AND/OR IMPROVING COGNITIVE FUNCTION” (PHARMA FOODS INTERNATIONAL CO., LTD., priority 2020, published 2026)

Tests used:
[1] = test system: IGF-1 (insulin-like growth factor-1); assay: Blood test, IGF-1 concentration in blood; format: in vivo, human; conditions: 200 mg ingestion test
Description: While there are still many unclear points regarding the biochemical mechanism regarding reduction in cognitive function, the IGF-1 (insulin-like growth factor-1) level in blood is known to be reduced by aging. […] In one embodiment of the present disclosure, the composition of the present disclosure can be a composition for suppressing reduction in cognitive function and/or improving the cognitive function through elevation of the IGF-1 concentration in blood.
Among the 120 subjects in Example 1, a total of six blood tests were carried out to the total of 60 subjects who participated in test, wherein blood tests were carried out upon screening, before starting test food ingestion, after four weeks of ingestion, after eight weeks of ingestion, after twelve weeks of ingestion and four weeks after ending ingestion, as shown with ● in the test schedule in Table 1.

[2] = test system: cognitive function of a human; assay: RBANS neuropsychological test in clinical tests A and B; format: in vivo; parameters: Attention / Delayed memory / Immediate memory / Language: scale not given here; conditions: for Attention / Immediate memory / Language / Visual spatial configuration / Delayed memory: mean ± SD; for scores regarding delayed playback, GABA group compared to the placebo group / scores regarding visual space, GABA group compared to the placebo group: after twelve weeks of ingestion
Method: In addition, the RBANS neuropsychological test (RBANS: Repeatable Battery for the Assessment of Neuropsychological Status) is one of the neuropsychological examinations that have been standardized the a in United States, which is neuropsychological test exercise (examination battery) that takes a short time (about 30 minutes) and can be repeatedly assessed. The RBANS neuropsychological test can assess five cognitive domains, which are immediate memory, visual spatial/constructional, language, attention and delayed memory.
Two types of placebo-controlled randomized double-blind two-group parallel comparison tests were carried out as clinical tests. […] Specifically, capsules comprising 100 mg of dextrin per capsule were used as the placebo food.
The screening examination was carried out to select 60 subjects for each test (a total of 120 subjects). MMSE (Mini Mental State Examination) is an examination for assessing the degree of progression of dementia or the like based on the score thereof with 30 as the perfect score, wherein dementia is suspected with a score of 23 or lower.
The total of 120 subjects were randomly divided into test A active group, test A placebo group, test B active group and test B placebo group with 30 subjects in each group. Each subject of the test A active group ingested two capsules of the active food, each subject of the test A placebo group ingested two capsules of the placebo food, each subject of the test B active group ingested one capsule of the active food and each subject of the test B placebo group ingested one capsule of the placebo food.
Each subject followed the schedule shown in the table below and ingested one or two of the assigned capsules together with water for 12 weeks from two weeks after the initial screening examination. All subjects had no particular instruction during the ingestion period and freely took their meals.
As shown with ● in the test schedule in Table 1, Cognitrax was carried out a total of five times, which are upon screening, before starting test food sample ingestion, after four weeks of ingestion, after eight weeks of ingestion and after twelve weeks of ingestion, and the RBANS neuropsychological test was carried out a total of two times, which are before staring test food ingestion and after twelve weeks of ingestion.

[3] = test A 200 mg, before ingestion
[4] = test B 100 mg, before ingestion

## NCCCC(=O)O [GABA, γ-aminobutyric acid]
[1]; blood, before ingestion, mean ± SD
  IGF-1: 71.0 ± 21.5 ng/mL
[1]; vs. before ingestion
  IGF-1 in the group that ingested GABA: tendency of increase
[2]; test A 200 mg, 12 w
  Delayed memory: difference between active food and placebo food groups: 9.4
  Immediate memory: difference between active food and placebo food groups: 13.1
  Language: difference between active food and placebo food groups: 5.0
  RBANS domain (row head blank): difference between active food and placebo food groups: 5.6
  Visual space: difference between active food and placebo food groups: 3.1
  Attention: 53.0 ± 15.2
  Immediate memory: 47.6 ± 14.7
  Language: 54.2 ± 9.5
  Visual spatial configuration: 48.8 ± 13.0
[2]; [3]
  Delayed memory: difference between active food and placebo food groups: −1.6
  Immediate memory: difference between active food and placebo food groups: 0.8
  Language: difference between active food and placebo food groups: 2.3
  RBANS domain (row head blank): difference between active food and placebo food groups: −0.8
  Visual space: difference between active food and placebo food groups: −0.2
  Attention: 44.5 ± 17.6
  Delayed memory: 39.8 ± 17.1
  Immediate memory: 42.3 ± 16.6
  Language: 48.4 ± 8.5
  Visual spatial configuration: 47.7 ± 14.7
[2]; test A
  scores regarding delayed playback, GABA group compared to the placebo group: significant improvement
  scores regarding visual space, GABA group compared to the placebo group: significant improvement
[2]; test B 100 mg, 12 w
  Attention: difference between active food and placebo food groups: −2.2
  Delayed memory: difference between active food and placebo food groups: 11.9
  Immediate memory: difference between active food and placebo food groups: 3.5
  Language: difference between active food and placebo food groups: 3.9
  Visual space: difference between active food and placebo food groups: 9.9
  Delayed memory: 46.9 ± 11.3
  Immediate memory: 43.9 ± 14.4
  Language: 51.6 ± 8.7
  Visual spatial configuration: 48.2 ± 10.3
[2]; [4]
  Attention: difference between active food and placebo food groups: −5.5
  Delayed memory: difference between active food and placebo food groups: 1.2
  Immediate memory: difference between active food and placebo food groups: −0.9
  Language: difference between active food and placebo food groups: −2.1
  Visual space: difference between active food and placebo food groups: 1.0
  Attention: 43.4 ± 11.6
  Delayed memory: 41.7 ± 15.3
  Immediate memory: 42.8 ± 13.4
  Language: 47.8 ± 11.6
  Visual spatial configuration: 48.3 ± 8.8
[2]; test B
  scores regarding delayed playback, GABA group compared to the placebo group: significant improvement
  scores regarding visual space, GABA group compared to the placebo group: significant improvement
